# Values quoted from earlier work as cited in patent US20210307321A1, “CAPSULE SUSPENSIONS WITH AGROCHEMICAL ACTIVE INGREDIENTS” (priority 2018, published 2021).
smiles,measurement,value
"O=C(Nc1ccc(F)cc1F)c1cccnc1Oc1cccc(C(F)(F)F)c1 [Diflufenican, 2′,4′-Difluoro-2-(a,a,a-trifluoro-m-tolyloxy)nicotinanilide]",solubility in non-water miscible solvents,very low solubility
